This is an account of results in the NIST ThermoML archive (doi:10.1021/je201310d).

Each structure is given as a SMILES string. ± gives the expanded uncertainty stated by the source.

The nature of the data set: activity coefficient (dimensionless); of the first substance listed, at infinite dilution; xn = mol fraction of the nth substance listed. The settings on record: 101 kPa, Liquid, Chromatography, x1 = 0.

`Cc1ccccc1C` [1,2-dimethylbenzene] + CCCCOP(=O)([O-])OCCCC.CCCCn1cc[n+](C)c1: the activity coefficient came out at 1.8 ± 0.11 (313.15 K); 1.77 ± 0.1 (323.15 K); 1.73 ± 0.1 (333.15 K); 1.71 ± 0.1 (343.15 K); 1.68 ± 0.1 (353.15 K); 1.65 ± 0.1 (363.15 K).
`Cc1cccc(C)c1` [1,3-dimethylbenzene] + CCCCOP(=O)([O-])OCCCC.CCCCn1cc[n+](C)c1: the activity coefficient by setting is: (313.15 K) 1.99 ± 0.12; (323.15 K) 1.95 ± 0.12; (333.15 K) 1.92 ± 0.11; (343.15 K) 1.88 ± 0.11; (353.15 K) 1.85 ± 0.11; (363.15 K) 1.83 ± 0.11.
In the case of `Cc1ccc(C)cc1` [1,4-dimethylbenzene] + CCCCOP(=O)([O-])OCCCC.CCCCn1cc[n+](C)c1, the activity coefficient runs as follows: (313.15 K) 1.91 ± 0.11; (323.15 K) 1.86 ± 0.11; (333.15 K) 1.82 ± 0.11; (343.15 K) 1.78 ± 0.1; (353.15 K) 1.75 ± 0.1; (363.15 K) 1.72 ± 0.1.
As to `CC(C)CC(C)(C)C` [2,2,4-trimethylpentane] + CCCCOP(=O)([O-])OCCCC.CCCCn1cc[n+](C)c1, the activity coefficient reads like this: (313.15 K) 6.2 ± 0.37; (323.15 K) 6.12 ± 0.36; (333.15 K) 6.06 ± 0.36; (343.15 K) 6.01 ± 0.36; (353.15 K) 5.94 ± 0.35; (363.15 K) 5.88 ± 0.35.
In the case of `c1ccccc1` [benzene] + CCCCOP(=O)([O-])OCCCC.CCCCn1cc[n+](C)c1, the activity coefficient by setting is: (313.15 K) 1.03 ± 0.06; (323.15 K) 0.97 ± 0.05; (333.15 K) 0.93 ± 0.05; (343.15 K) 0.9 ± 0.05; (353.15 K) 0.88 ± 0.05; (363.15 K) 0.85 ± 0.05.
For `C1CCCCC1` [cyclohexane] + CCCCOP(=O)([O-])OCCCC.CCCCn1cc[n+](C)c1, the activity coefficient is, setting by setting: (313.15 K) 3.09 ± 0.18; (323.15 K) 2.99 ± 0.18; (333.15 K) 2.84 ± 0.17; (343.15 K) 2.76 ± 0.16; (353.15 K) 2.68 ± 0.16; (363.15 K) 2.59 ± 0.15.
Turning to `C1=CCCCC1` [cyclohexene] + CCCCOP(=O)([O-])OCCCC.CCCCn1cc[n+](C)c1, the activity coefficient (313.15 K) was 2.2 ± 0.13; the activity coefficient (323.15 K) was 2.15 ± 0.13; the activity coefficient (333.15 K) worked out at 2.11 ± 0.13; the activity coefficient (343.15 K) was 2.05 ± 0.12; the activity coefficient (353.15 K) was 2.02 ± 0.12; the activity coefficient (363.15 K) amounted to 1.96 ± 0.12.
Regarding `CCCCCCCCCC` [decane] + CCCCOP(=O)([O-])OCCCC.CCCCn1cc[n+](C)c1, the activity coefficient by setting is: (313.15 K) 10 ± 0.6; (323.15 K) 9.65 ± 0.58; (333.15 K) 9.16 ± 0.55; (343.15 K) 8.78 ± 0.52; (353.15 K) 8.54 ± 0.51; (363.15 K) 8.25 ± 0.49.
Consider `CCCCCCC` [heptane] + CCCCOP(=O)([O-])OCCCC.CCCCn1cc[n+](C)c1, for which the activity coefficient (313.15 K) was 5.5 ± 0.33; the activity coefficient (323.15 K) was determined as 5.38 ± 0.32; the activity coefficient (333.15 K) amounted to 5.29 ± 0.31; the activity coefficient (343.15 K) amounted to 5.21 ± 0.31; the activity coefficient (353.15 K) was 5.12 ± 0.3; the activity coefficient (363.15 K) was 5.05 ± 0.3.
As to `CCCCCC` [hexane] + CCCCOP(=O)([O-])OCCCC.CCCCn1cc[n+](C)c1, the activity coefficient was found to be 4.73 ± 0.28 (313.15 K); 4.63 ± 0.28 (323.15 K); 4.51 ± 0.27 (333.15 K); 4.45 ± 0.26 (343.15 K); 4.32 ± 0.26 (353.15 K); 4.24 ± 0.25 (363.15 K).
As for `CC1CCCCC1` [methylcyclohexane] + CCCCOP(=O)([O-])OCCCC.CCCCn1cc[n+](C)c1, the activity coefficient runs as follows: (313.15 K) 3.7 ± 0.22; (323.15 K) 3.61 ± 0.21; (333.15 K) 3.54 ± 0.21; (343.15 K) 3.48 ± 0.21; (353.15 K) 3.41 ± 0.2; (363.15 K) 3.35 ± 0.2.
Take `CCCCCCCCC` [nonane] + CCCCOP(=O)([O-])OCCCC.CCCCn1cc[n+](C)c1: the activity coefficient reads like this: (313.15 K) 7.69 ± 0.46; (323.15 K) 7.47 ± 0.45; (333.15 K) 7.31 ± 0.44; (343.15 K) 7.13 ± 0.42; (353.15 K) 7.02 ± 0.42; (363.15 K) 6.88 ± 0.41.
As to `CCCCCCCC` [octane] + CCCCOP(=O)([O-])OCCCC.CCCCn1cc[n+](C)c1, the activity coefficient runs as follows: (313.15 K) 6.54 ± 0.39; (323.15 K) 6.43 ± 0.38; (333.15 K) 6.36 ± 0.38; (343.15 K) 6.28 ± 0.37; (353.15 K) 6.21 ± 0.37; (363.15 K) 6.15 ± 0.37.
On to `CCCCC` [pentane] + CCCCOP(=O)([O-])OCCCC.CCCCn1cc[n+](C)c1, for which the activity coefficient runs as follows: (313.15 K) 4.12 ± 0.25; (323.15 K) 4.05 ± 0.24; (333.15 K) 3.93 ± 0.23; (343.15 K) 3.86 ± 0.23; (353.15 K) 3.79 ± 0.23; (363.15 K) 3.72 ± 0.22.
`C=Cc1ccccc1` [styrene] + CCCCOP(=O)([O-])OCCCC.CCCCn1cc[n+](C)c1: the activity coefficient was 1.19 ± 0.07 (313.15 K); 1.15 ± 0.06 (323.15 K); 1.09 ± 0.06 (333.15 K); 1.07 ± 0.06 (343.15 K); 1.03 ± 0.06 (353.15 K); 0.98 ± 0.05 (363.15 K).
`Cc1ccccc1` [toluene] + CCCCOP(=O)([O-])OCCCC.CCCCn1cc[n+](C)c1: the activity coefficient (313.15 K) turned out to be 1.39 ± 0.08; the activity coefficient (323.15 K) is 1.35 ± 0.08; the activity coefficient (333.15 K) turned out to be 1.32 ± 0.07; the activity coefficient (343.15 K) worked out at 1.3 ± 0.07; the activity coefficient (353.15 K) is 1.29 ± 0.07; the activity coefficient (363.15 K) worked out at 1.27 ± 0.07.
